Reference: ChEMBL document CHEMBL5528082 (J Med Chem, 2024)
≈ marks a conversion by molar mass, not a printed value. Calls of active or inactive are those of the source. No cut-off for these calls is given here.

Tests used:
[1] = AUC (0 to t) in Sprague-Dawley rat at 5 mg/kg, iv measured for 24 hrs by LC/MS analysis; format: ADME, organism-based; details: in vivo
Dihydrofolate reductase [2] = biological target: Dihydrofolate reductase (Staphylococcus aureus, UniProt P0A017); assay: Inhibition of Staphylococcus aureus DHFR expressed in Escherichia coli BL21 (DE3) using DHF as substrate preincubated for 10 mins followed by substrate addition measured for 10 mins in presence of NADPH by spectrophotometry
Dihydrofolate reductase (Staphylococcus aureus, UniProt P0A017), sequence (P0A017 whole entry): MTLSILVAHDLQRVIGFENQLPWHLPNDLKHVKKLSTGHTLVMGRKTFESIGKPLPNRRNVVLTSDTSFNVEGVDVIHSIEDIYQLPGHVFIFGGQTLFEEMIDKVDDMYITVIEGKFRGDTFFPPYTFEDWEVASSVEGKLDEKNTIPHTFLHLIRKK

Staphylococcus aureus [3] = assay: Antibacterial activity against Staphylococcus aureus ATCC 25923 incubated for 24 hrs by CLSI based broth microdilution assay; format: functional
Staphylococcus aureus [4] = assay: Synergistic antibacterial activity against TMP-resistant Staphylococcus aureus BHKS 227 assessed as fractional inhibitory concentration index incubated for 24 hrs in presence of SMX by CLSI based broth microdilution assay; format: functional
Staphylococcus aureus [5] = assay: Antibacterial activity against TMP-resistant Staphylococcus aureus BHKS 231 incubated for 24 hrs by CLSI based broth microdilution assay; format: functional
[6] = Acute toxicity in C57 mouse assessed as body weight loss at 400 to 800 mg/kg, po measured for 4 days; format: organism-based; details: in vivo, 96 h, dose 400-800 mg/kg, time 4 day
Staphylococcus aureus [7] = assay: Antibacterial activity against methicillin-resistant Staphylococcus aureus ATCC 33591 infected in C57 mouse model assessed as body weight recovery at 2 to 10 mg/kg administered once a day for 3 days consecutively and measured after 24 hrs post-last dose; format: functional, organism-based; details: dose 2-10 mg/kg, time 4.0 day
Staphylococcus aureus [8] = assay: Antibacterial activity against methicillin-resistant Staphylococcus aureus ATCC 33591 infected in C57 mouse model assessed as wound healing at 2 to 10 mg/kg administered once a day for 3 days consecutively and measured after 24 hrs post-last dose; format: functional, organism-based; details: dose 2-10 mg/kg, time 4.0 day
[9] = Metabolic stability in human liver microsomes assessed as clearance rate at 3 uM measured for 120 mins by LC-MS/MS analysis; format: ADME, Microsome; details: 2 h
[10] = Metabolic stability in mouse liver microsomes assessed as half life at 3 uM measured for 120 mins by LC-MS/MS analysis; format: ADME, Microsome; details: 2 h
[11] = Cmax in Sprague-Dawley rat at 5 mg/kg, iv measured for 24 hrs by LC/MS analysis; format: ADME, organism-based; details: in vivo
[12] = Metabolic stability in mouse liver microsomes assessed as clearance rate at 3 uM measured for 120 mins by LC-MS/MS analysis; format: ADME, Microsome; details: 2 h
[13] = Acute toxicity in C57 mouse assessed as damage in spleen at 800 mg/kg, po measured after 1 week by H and E staining based analysis; format: organism-based; details: in vivo, 168 h, time 1 weeks
[14] = Acute toxicity in C57 mouse assessed as animal death at 800 mg/kg, po measured after 1 week; format: organism-based; details: in vivo, 168 h, time 1 weeks
Staphylococcus aureus [15] = assay: Antibacterial activity against methicillin-resistant Staphylococcus aureus ATCC 33591 infected in C57 mouse model assessed as clear skin structure at 2 to 10 mg/kg administered once a day for 3 days consecutively and measured after 24 hrs post-last dose by H and E staining based analysis; format: functional, organism-based; details: dose 2-10 mg/kg, time 4.0 day
Staphylococcus aureus [16] = assay: Antibacterial activity against TMP-resistant Staphylococcus aureus BHKS 723 incubated for 24 hrs by CLSI based broth microdilution assay; format: functional
Staphylococcus aureus [17] = assay: Synergistic antibacterial activity against TMP-resistant Staphylococcus aureus BHKS 231 assessed as fractional inhibitory concentration index incubated for 24 hrs in presence of SMX by CLSI based broth microdilution assay; format: functional
[18] = Acute toxicity in C57 mouse assessed as damage in kidney at 800 mg/kg, po measured after 1 week by H and E staining based analysis; format: organism-based; details: in vivo, 168 h, time 1 weeks
Staphylococcus aureus [19] = assay: Antibacterial activity against TMP-resistant Staphylococcus aureus BHKS 721 incubated for 24 hrs by CLSI based broth microdilution assay; format: functional
Staphylococcus aureus [20] = assay: Antibacterial activity against TMP-resistant Staphylococcus aureus BHKS 227 incubated for 24 hrs by CLSI based broth microdilution assay; format: functional
[21] = Clearance in Sprague-Dawley rat at 5 mg/kg, iv measured for 24 hrs by LC/MS analysis; format: ADME, organism-based; details: in vivo
Staphylococcus aureus [22] = assay: Synergistic antibacterial activity against Staphylococcus aureus ATCC 25923 assessed as fractional inhibitory concentration index incubated for 24 hrs in presence of SMX by CLSI based broth microdilution assay; format: functional
Staphylococcus aureus [23] = assay: Antibacterial activity against methicillin-resistant Staphylococcus aureus ATCC 33591 infected in C57 mouse model assessed as decrease in pathological change at 2 to 10 mg/kg administered once a day for 3 days consecutively and measured after 24 hrs post-last dose by H and E staining based analysis; format: functional, organism-based; details: dose 2-10 mg/kg, time 4.0 day
Mus musculus = assay: Induction of inflammatory cell infiltration in C57 mouse model infected with methicillin-resistant Staphylococcus aureus ATCC 33591 at 2 to 10 mg/kg administered once a day for 3 days consecutively and measured after 24 hrs post-last dose by H and E staining based analysis; format: functional, organism-based; details: dose 2-10 mg/kg, time 4.0 day
Staphylococcus aureus [24] = assay: Antibacterial activity against Staphylococcus aureus USA 300 incubated for 24 hrs by CLSI based broth microdilution assay; format: functional
[25] = Metabolic stability in human liver microsomes assessed as half life at 3 uM measured for 120 mins by LC-MS/MS analysis; format: ADME, Microsome; details: 2 h
[26] = Tmax in Sprague-Dawley rat at 5 mg/kg, iv measured for 24 hrs by LC/MS analysis; format: ADME, organism-based; details: in vivo
[27] = AUC (0 to t) in Sprague-Dawley rat at 15 mg/kg, po measured for 24 hrs by LC/MS analysis; format: ADME, organism-based; details: in vivo
Staphylococcus aureus [28] = assay: Synergistic antibacterial activity against TMP-resistant Staphylococcus aureus BHKS 721 assessed as fractional inhibitory concentration index incubated for 24 hrs in presence of SMX by CLSI based broth microdilution assay; format: functional
[29] = Tmax in Sprague-Dawley rat at 15 mg/kg, po measured for 24 hrs by LC/MS analysis; format: ADME, organism-based; details: in vivo
[30] = tested on: Dihydrofolate reductase (Staphylococcus aureus); details: dose 100.0 nM
Dihydrofolate reductase [31] = biological target: T1, Dihydrofolate reductase (Homo sapiens, UniProt P00374); assay: Inhibition of human DHFR
T1 sequence (P00374 whole entry): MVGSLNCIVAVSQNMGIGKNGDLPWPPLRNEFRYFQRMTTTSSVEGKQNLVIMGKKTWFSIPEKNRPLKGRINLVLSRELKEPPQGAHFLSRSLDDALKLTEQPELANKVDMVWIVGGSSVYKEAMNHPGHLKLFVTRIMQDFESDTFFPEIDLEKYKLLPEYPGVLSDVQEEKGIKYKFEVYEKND

[32] = Acute toxicity in C57 mouse assessed as damage in liver at 800 mg/kg, po measured after 1 week by H and E staining based analysis; format: organism-based; details: in vivo, 168 h, time 1 weeks
[33] = Cmax in Sprague-Dawley rat at 15 mg/kg, po measured for 24 hrs by LC/MS analysis; format: ADME, organism-based; details: in vivo
[34] = Cytotoxicity against HEK293 cells assessed as inhibition rate of cell growth at 100 uM incubated for 24 hrs by CCK8 assay relative to control; format: toxicity, cell-based; details: human
[35] = Acute toxicity in C57 mouse assessed as body weight loss at 400 to 800 mg/kg, po measured for 2 days; format: organism-based; details: in vivo, 48 h, dose 400-800 mg/kg, time 2 day
Staphylococcus aureus [36] = assay: Synergistic antibacterial activity against Staphylococcus aureus USA 300 assessed as fractional inhibitory concentration index incubated for 24 hrs in presence of SMX by CLSI based broth microdilution assay; format: functional

CC(C)c1cc(OCC2CC2)c(I)cc1Oc1cnc(N)nc1N
AUC(0-t) at 24 h [1]: 3240 ng·h/mL | IC50 (Dihydrofolate reductase [2]): 0.97 nM | MIC (Staphylococcus aureus [3]): 0.031 µg/mL (≈ 0.0704 µM) | fractional inhibitory concentration index (FICI) (Staphylococcus aureus [4]): 0.27 | MIC (Staphylococcus aureus [5]): 32 µg/mL (≈ 72.7 µM) | Activity [6]: Non-Toxic | Activity (Staphylococcus aureus [7]): Active | Activity (Staphylococcus aureus [8]): Active | CLH [9]: 0.7 µL/min/mg | t1/2 [10]: 26.2 min | Cmax [11]: 4060 ng/mL | CLH [12]: 4.1 µL/min/mg | Activity [13]: Non-Toxic | Activity [14]: Non-Toxic | Activity (Staphylococcus aureus [15]): Active | MIC (Staphylococcus aureus [16]): 2 µg/mL (≈ 4.54 µM) | fractional inhibitory concentration index (FICI) (Staphylococcus aureus [17]): 1 | Activity [18]: Non-Toxic | MIC (Staphylococcus aureus [19]): 4 µg/mL (≈ 9.09 µM) | MIC (Staphylococcus aureus [20]): 0.5 µg/mL (≈ 1.14 µM) | clearance [21]: 25 mL/min/kg | fractional inhibitory concentration index (FICI) (Staphylococcus aureus [22]): 0.066 | Activity (Staphylococcus aureus [23]): Active | Activity (Mus musculus): Active | MIC (Staphylococcus aureus [24]): 0.031 µg/mL (≈ 0.0704 µM) | t1/2 [25]: 146.1 min | Tmax [26]: 4.8 min | AUC(0-t) at 24 h [27]: 3920 ng·h/mL | fractional inhibitory concentration index (FICI) (Staphylococcus aureus [28]): 0.375 | Tmax [29]: 79.8 min | inhibition [30]: 47.4% | IC50 (Dihydrofolate reductase [31]): 4190 nM | Activity [32]: Non-Toxic | Cmax [33]: 579 ng/mL | inhibition at 24 h, 100 µM [34]: 59.1% | Activity [35]: Toxic | fractional inhibitory concentration index (FICI) (Staphylococcus aureus [36]): 0.022
